Test results taken from PubChem BioAssay (NCI).
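Compound exposure: 48 hours, 5 concentrations, 96-well plates. GI50 is the concentration that inhibits growth by half. The concentration for full growth arrest is given as TGI.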

Experiments:
Test in all cases: NCI anticancer screen, dose series, 48 h
MCF7 breast = test system: MCF7 breast
TK-10 renal = test system: TK-10 renal
PC-3 prostate = test system: PC-3 prostate
OVCAR-3 ovarian = test system: OVCAR-3 ovarian
HCT-116 colon = test system: HCT-116 colon
HOP-92 NSCLC = test system: HOP-92 NSCLC
EKVX NSCLC = test system: EKVX NSCLC
CCRF-CEM leukemia = test system: CCRF-CEM leukemia
T-47D breast = test system: T-47D breast
RXF 393 renal = test system: RXF 393 renal

Structure (SMILES) | GI50 (MCF7 breast) [µM] | TGI (MCF7 breast) [µM] | GI50 (TK-10 renal) [µM] | TGI (TK-10 renal) [µM] | GI50 (PC-3 prostate) [µM] | TGI (PC-3 prostate) [µM] | GI50 (OVCAR-3 ovarian) [µM] | TGI (OVCAR-3 ovarian) [µM] | GI50 (HCT-116 colon) [µM] | TGI (HCT-116 colon) [µM] | GI50 (HOP-92 NSCLC) [µM] | TGI (HOP-92 NSCLC) [µM] | GI50 (EKVX NSCLC) [µM] | TGI (EKVX NSCLC) [µM] | GI50 (CCRF-CEM leukemia) [µM] | TGI (CCRF-CEM leukemia) [µM] | GI50 (T-47D breast) [µM] | TGI (T-47D breast) [µM] | GI50 (RXF 393 renal) [µM] | TGI (RXF 393 renal) [µM]
O=c1c(F)cn(Cc2ccc(C34CC5CC(CC(C5)C3)C4)c(O)c2)c(=O)n1Cc1ccc(C23CC4CC(CC(C4)C2)C3)c(O)c1 | 9.83 | 30.6 | 15.7 | 30 | 10.7 | 24.2 | 15.3 | 29.2 | 11.1 | 25 | 12.4 | 28.7 | 15.8 | 34.8 | 9.46 | > 100 | 20.8 | 51.6 | 6.5 | > 100
CCN(CC)CCNc1nc(N)c(C#N)c(C#N)c1C#N | – | > 10 | – | > 10 | – | > 10 | – | > 10 | – | > 10 | – | > 10 | – | > 10 | – | > 10 | – | > 10 | – | > 10
COc1ccc2nc3ccccc3c(NCc3ccc(F)cc3)c2c1 | 1.17 | 3.52 | 2.89 | 10.3 | 1.96 | 8.01 | 2.25 | 7.81 | 1.75 | 6.5 | 1.39 | 6.6 | 2.16 | 7.95 | 2.06 | 23.4 | 3.11 | 13.6 | 1.13 | 3.1
Clc1cc2c(c(CSc3nc4ccccc4n4cccc34)c1)OCOC2 | 0.501 | > 100 | 3.49 | 60.3 | > 100 | > 100 | 7.5 | > 100 | > 100 | > 100 | 5.36 | 35.5 | 29.6 | > 100 | > 100 | > 100 | 0.596 | 9.33 | 15.2 | 61.9
C[C@@H]1C[C@@H]([C@@H](CC2CC(=O)NC(=O)C2)OC(=O)CC(=O)c2ccccc2)C(=O)[C@@H](C)C1 | 0.645 | > 100 | 0.306 | > 24.3 | 0.444 | > 100 | 1.74 | > 32.7 | 0.489 | > 45.2 | 0.324 | > 24.9 | 0.495 | – | 0.466 | > 85.5 | 0.554 | > 29.4 | 0.496 | 25.1
COC(=O)[C@]12CC[C@@H](C)[C@H](C)[C@@H]1C1=CC[C@@H]3[C@@]4(C)C[C@@H](O)[C@H](O)[C@@](C)(CO)C4=CC[C@@]3(C)[C@]1(C)CC2 | 14.2 | 31.2 | 19.4 | 34.5 | 12.9 | 27.5 | 18.3 | 37.8 | 19 | 37.2 | 19.2 | 34.9 | 15.9 | 32.5 | 18.2 | 37.1 | 12.3 | 27.8 | 16.9 | 34
